Where “and” joins values, the source holds several entries; their conditions need not be identical. Identical values can stand only once. Like-named read-outs stand apart in the source and are kept apart here.
Test: Phase 1 pharmacokinetic study of a single oral dose of 20 mg E4 monohydrate in female subjects with normal hepatic function and mild, moderate or severe hepatic impairment (plasma, LC-MS/MS, non-compartmental analysis)
Assay type: in vivo, human
Details: for AUC(0-t) / Cmax / half-life / Tmax / Vd/F / AUC(0-inf): female, human, plasma, po, 20 mg; for Tmax: read-out: Tmax, Median
Method: This was a Phase 1, multi-centre, open-label, PK, and safety study of a single oral dose of 20 mg E4 monohydrate in female subjects with normal hepatic function (Group 1), mild hepatic impairment (Group 2), moderate hepatic impairment (Group 3), and severe hepatic impairment (Group 4), as defined using the Child-Pugh classification at Screening.
The study consisted of an eligibility Screening period (within 28 days prior to study drug administration), an Assessment Period with in-house period and outpatient visits (including a single oral dose of 20 mg E4 on Day 1), and a follow up visit. All subjects were confined to the study site from Day-1 (the day before dosing) until Day 4 and returned to the site every day from Day 5 to Day 9. Alternatively, the subjects could stay for a prolonged in-house period in agreement with the Investigator. The follow-up visit occurred on Day 14 (+2 days).
All subjects arrived at the study site in the morning of Day-1 in a fasted state (no food for at least 8 h, water was allowed) to have the scheduled assessments performed in order to confirm eligibility as outlined in the inclusion and exclusion criteria (Section 2.3.1 and Section 2.3.2, respectively). In the morning of Day 1 following an overnight fast, the subjects received oral dosing of 20 mg E4 monohydrate and remained at the site. Study-related assessments were performed at time points indicated in the Schedule of Assessments in Table 2.
Serial blood sampling for PK assessments started on Day 1 and proceeded until Day 9 according to the Pharmacokinetic Sampling Schedule presented in Table 3.
Each enrolled subject was to receive a single oral dose of 20 mg of E4 (estetrol) as monohydrate as a film-coated tablet.
Study drug was administered to subjects in the morning after an overnight fast of at least 8 h.
Calculation of non-compartmental PK parameters were done using WinNonlin™ Professional, Version 6.3 or higher.
The primary PK parameters to be analyzed for E4 in plasma: • Cmax=maximum observed plasma concentration • AUCinf=area under the concentration-time curve (AUC) from time zero extrapolated to infinity
The analysis of E4 and the metabolites E4-3-glucuronide and E4-16-glucuronide in plasma samples were performed at the Bioanalytical Laboratory of the CRO using a validated liquid chromatography-mass spectrometry/mass spectrometry method.
Individual and mean plasma concentrations at each sampling time point for E4 are presented by listings and descriptive summary statistics including means, geometric means (GMs), medians, ranges, standard deviations (SD) and coefficients of variation (CV). Individual, mean and/or median concentrations per hepatic function group were plotted versus time on semilogarithmic scales.
PK parameters were calculated by non-compartmental analysis. PK parameters were analysed using descriptive statistics and are presented by hepatic function group.
Analysis of variance (ANOVA) were used to compare primary PK parameters of E4 (Cmax and AUCinf) between subjects with hepatic impairment and subjects with normal hepatic function in an exploratory approach, using the log-transformed value of each PK parameter as dependent variable, and the hepatic impairment group (normal, mild, moderate, and severe) as a fixed classification factor. Geometric least squares means were used to calculate the ratios of primary PK parameters for each hepatic impairment group to those in the control group, along with 90% confidence intervals (CIs).
Additionally, the impact of age and BMI on the effect of hepatic impairment were evaluated using an ANOVA model similar as the ANOVA model described above, but with the interaction between each factor and the hepatic impairment group included as an additional factor.
The relationship between log-transformed PK parameters (Cmax and AUCinf) and continuous parameters (albumin, total bilirubin, and prothrombin time) used for the Child-Pugh score was explored by a linear regression approach. […]

[1] = mild hepatic impairment, single oral dose 20 mg
[2] = moderate hepatic impairment, single oral dose 20 mg
[3] = severe hepatic impairment, single oral dose 20 mg

Compound: C[C@]12CC[C@@H]3c4ccc(O)cc4CC[C@H]3[C@@H]1[C@@H](O)[C@@H](O)[C@@H]2O [E4, 1,3,5 (10)-estratrien-3,15alpha, 16alpha, 17beta-tetrol]
- AUC(0-t) (Moderate hepatic impairment, single oral dose 20 mg E4 monohydrate, read-out: AUClast, Mean): 0.122 µg·h/mL
- AUC(0-t) (Moderate hepatic impairment, single oral dose 20 mg E4 monohydrate, read-out: AUClast, Median): 0.114 µg·h/mL
- Cmax (Moderate hepatic impairment, single oral dose 20 mg E4 monohydrate, read-out: Cmax, GM): 0.0394 µg/mL
- Cmax (Moderate hepatic impairment, single oral dose 20 mg E4 monohydrate, read-out: Cmax, Mean): ~0.052 µg/mL
- Cmax (Moderate hepatic impairment, single oral dose 20 mg E4 monohydrate, read-out: Cmax, Median): 0.0411 µg/mL
- half-life (Moderate hepatic impairment, single oral dose 20 mg E4 monohydrate, read-out: T1/2, GM (converted)): 14.8 h
- half-life (Moderate hepatic impairment, single oral dose 20 mg E4 monohydrate, read-out: T1/2, Mean (converted)): 16.6 h
- half-life (Moderate hepatic impairment, single oral dose 20 mg E4 monohydrate, read-out: T1/2, Median (converted)): 14.3 h
- Tmax (Moderate hepatic impairment, single oral dose 20 mg E4 monohydrate): 0.5 h
- Vd/F (Moderate hepatic impairment, single oral dose 20 mg E4 monohydrate, read-out: Vz/F, GM): 3960 L
- Vd/F (Moderate hepatic impairment, single oral dose 20 mg E4 monohydrate, read-out: Vz/F, Mean): 4760 L
- Vd/F (Moderate hepatic impairment, single oral dose 20 mg E4 monohydrate, read-out: Vz/F, Median): 4150 L
- AUC(0-inf) (Normal (Reference), one-way ANOVA, single oral dose 20 mg, read-out: AUCinf, Geometric LS Mean): 0.104 µg·h/mL
- Cmax (Normal (Reference), one-way ANOVA, single oral dose 20 mg, read-out: Cmax, Geometric LS Mean): 0.0208 µg/mL
- AUC(0-t) (Normal hepatic function, single oral dose 20 mg E4 monohydrate, read-out: AUC0-24 h, GM): 0.0604 µg·h/mL
- AUC(0-t) (Normal hepatic function, single oral dose 20 mg E4 monohydrate, read-out: AUC0-24 h, Mean): 0.0635 µg·h/mL
- AUC(0-t) (Normal hepatic function, single oral dose 20 mg E4 monohydrate, read-out: AUC0-24 h, Median): 0.0638 µg·h/mL
- AUC(0-inf) (Normal hepatic function, single oral dose 20 mg E4 monohydrate, read-out: AUCinf, GM): 0.104 µg·h/mL
- AUC(0-inf) (Normal hepatic function, single oral dose 20 mg E4 monohydrate, read-out: AUCinf, Mean): 0.108 µg·h/mL
- AUC(0-inf) (Normal hepatic function, single oral dose 20 mg E4 monohydrate, read-out: AUCinf, Median): 0.113 µg·h/mL
- AUC(0-t) (Normal hepatic function, single oral dose 20 mg E4 monohydrate, read-out: AUClast, GM): 0.103 µg·h/mL
- AUC(0-t) (Normal hepatic function, single oral dose 20 mg E4 monohydrate, read-out: AUClast, Mean): 0.107 µg·h/mL
- AUC(0-t) (Normal hepatic function, single oral dose 20 mg E4 monohydrate, read-out: AUClast, Median): 0.111 µg·h/mL
- Cmax (Normal hepatic function, single oral dose 20 mg E4 monohydrate, read-out: Cmax, GM): 0.0208 µg/mL
- Cmax (Normal hepatic function, single oral dose 20 mg E4 monohydrate, read-out: Cmax, Mean): ~0.024 µg/mL
- Cmax (Normal hepatic function, single oral dose 20 mg E4 monohydrate, read-out: Cmax, Median): 0.0248 µg/mL
- half-life (Normal hepatic function, single oral dose 20 mg E4 monohydrate, read-out: T1/2, GM (converted)): 21.7 h
- half-life (Normal hepatic function, single oral dose 20 mg E4 monohydrate, read-out: T1/2, Mean (converted)): 22.3 h
- half-life (Normal hepatic function, single oral dose 20 mg E4 monohydrate, read-out: T1/2, Median (converted)): 22.7 h
- Tmax (Normal hepatic function, single oral dose 20 mg E4 monohydrate): 0.475 h
- Vd/F (Normal hepatic function, single oral dose 20 mg E4 monohydrate, read-out: Vz/F, GM): 6000 L
- Vd/F (Normal hepatic function, single oral dose 20 mg E4 monohydrate, read-out: Vz/F, Mean): 6590 L
- Vd/F (Normal hepatic function, single oral dose 20 mg E4 monohydrate, read-out: Vz/F, Median): 6430 L
- AUC(0-inf) (Severe (Test), one-way ANOVA, single oral dose 20 mg, read-out: AUCinf, Geometric LS Mean): 0.198 µg·h/mL
- Cmax (Severe (Test), one-way ANOVA, single oral dose 20 mg, read-out: Cmax, Geometric LS Mean): 0.111 µg/mL
- AUC(0-t) (Severe hepatic impairment, single oral dose 20 mg E4 monohydrate, read-out: AUC0-24 h, GM): 0.179 µg·h/mL
- AUC(0-t) (Severe hepatic impairment, single oral dose 20 mg E4 monohydrate, read-out: AUC0-24 h, Mean): 0.184 µg·h/mL
- AUC(0-t) (Severe hepatic impairment, single oral dose 20 mg E4 monohydrate, read-out: AUC0-24 h, Median): 0.172 µg·h/mL
- AUC(0-inf) (Severe hepatic impairment, single oral dose 20 mg E4 monohydrate, read-out: AUCinf, GM): 0.198 µg·h/mL
- AUC(0-inf) (Severe hepatic impairment, single oral dose 20 mg E4 monohydrate, read-out: AUCinf, Mean): 0.205 µg·h/mL
- AUC(0-inf) (Severe hepatic impairment, single oral dose 20 mg E4 monohydrate, read-out: AUCinf, Median): 0.18 µg·h/mL
- AUC(0-t) (Severe hepatic impairment, single oral dose 20 mg E4 monohydrate, read-out: AUClast, GM): 0.196 µg·h/mL
- AUC(0-t) (Severe hepatic impairment, single oral dose 20 mg E4 monohydrate, read-out: AUClast, Mean): 0.204 µg·h/mL
- AUC(0-t) (Severe hepatic impairment, single oral dose 20 mg E4 monohydrate, read-out: AUClast, Median): 0.178 µg·h/mL
- Cmax (Severe hepatic impairment, single oral dose 20 mg E4 monohydrate, read-out: Cmax, GM): 0.111 µg/mL
- Cmax (Severe hepatic impairment, single oral dose 20 mg E4 monohydrate, read-out: Cmax, Mean): ~0.117 µg/mL
- Cmax (Severe hepatic impairment, single oral dose 20 mg E4 monohydrate, read-out: Cmax, Median): 0.109 µg/mL
- half-life (Severe hepatic impairment, single oral dose 20 mg E4 monohydrate, read-out: T1/2, GM (converted)): 8.22 h
- half-life (Severe hepatic impairment, single oral dose 20 mg E4 monohydrate, read-out: T1/2, Mean (converted)): 8.97 h
- half-life (Severe hepatic impairment, single oral dose 20 mg E4 monohydrate, read-out: T1/2, Median (converted)): 6.26 h
- Tmax (Severe hepatic impairment, single oral dose 20 mg E4 monohydrate): 0.25 h
- Vd/F (Severe hepatic impairment, single oral dose 20 mg E4 monohydrate, read-out: Vz/F, GM): 1200 L
- Vd/F (Severe hepatic impairment, single oral dose 20 mg E4 monohydrate, read-out: Vz/F, Mean): 1260 L
- Vd/F (Severe hepatic impairment, single oral dose 20 mg E4 monohydrate, read-out: Vz/F, Median): 1220 L
- time to primary peak plasma concentration after administration (group of severe hepatic impairment): ≤ 15 min
- time post dose until which concentrations remained above LLOQ in at least half of the subjects (mild hepatic impairment): 144 h
- time post-dose of last measurable concentration (Clast) (mild hepatic impairment, 192 h = last measured timepoint): 192 h
- GM AUCinf compared to the control group (normal hepatic function) [1]: ~ 1.1 fold and 1.120 fold
- GM Cmax compared to the control group (normal hepatic function) [1]: ~ 1.7 fold and 1.661 fold
- time post dose until which concentrations remained above LLOQ in at least half of the subjects (moderate hepatic impairment): 96 h
- time post-dose of last measurable concentration (Clast) (moderate hepatic impairment): 144 h
- GM AUCinf compared to the control group (normal hepatic function) [2]: ~ 1.0 fold and 1.032 fold
- GM Cmax compared to the control group (normal hepatic function) [2]: ~ 1.9 fold and 1.896 fold
- time post dose until which concentrations remained above LLOQ in at least half of the subjects (normal hepatic function): 144 h
- time post-dose of last measurable concentration (Clast) (normal hepatic function, 192 h = last measured timepoint): 192 h
- time to primary peak plasma concentration after administration (on average, single oral dose 20 mg): ≤ 30 min
- time post dose until which concentrations remained above LLOQ in at least half of the subjects (severe hepatic impairment): 48 h
- time post-dose of last measurable concentration (Clast) (severe hepatic impairment): 168 h
- GM AUCinf compared to the control group (normal hepatic function) [3]: ~ 1.9 fold and 1.894 fold
- GM Cmax compared to the control group (normal hepatic function) [3]: ~ 5.4 fold and 5.359 fold
- time after which log-linear terminal elimination phase is entered (single oral dose 20 mg): ~ 12 h

— patent US20260207623A1, “USE OF ESTETROL IN HEPATICALLY IMPAIRED PATIENTS” (ESTETRA SRL, priority 2022, published 2026)
